From patent publication US9726669B2, “Biomarkers for determining sensitivity of breast cancer cells to HER2-targeted therapy” (PIERIAN HOLDINGS, INC., priority 2009, dated 2017)

Tests used:
[1] = tested on: ER-positive breast cancer; settings: cited from earlier work
[2] = tested on: VEGF; settings: with chemotherapy; patients with colorectal, breast, and lung cancers; cited from earlier work
[3] = tested on: MDA MB 468 cells; assay: COPIA per-cell RTK activation in growth factor stimulated MDA-MB-468 cells; format: cell-based, human; settings: MDA MB 468 cells stimulated with EGF
Method: (§1) SKBr3, MDA-MB-468, T47D and BT474 cell lines were obtained from ATCC. Cells were grown in the following growth media in 100 mm tissue culture plates at 37° C. in 5% CO2: SKBr3 McCoy's 5A medium with 10% FBS, MDA-MB-468: DMEM, 10% FBS, BT474: DMEM, 10B FBS, T47D: RPMI 1640, 10% FBS, 0.2 U/ml bovine insulin. Cells were harvested at 70-80% confluency with gentle detachment process (trypsin treatment+subsequent inactivation) and were subsequently counted and washed with 1×PBS. Cell stimulation was performed with 100 uM EGF or 20 uM heregulin β or both in serum-free growth media for 5 min. Stimulated cells were washed with 1×PBS and then were lysed (lysis buffer: 50 mM Tris, pH 7.4, 150 mM NaCl, 1% Trition X-100 and 200 mM Na3VO4) and kept on ice for 30 min.
(§2) Slides were first rinsed two times with TBST (50 mM Tris/150 mM NaCl/0.1% Tween-20, pH 7.2-7.4) before blocking them with 80 ul of Whatman Blocking Buffer 1 hr at RT or O/N at 4 C. After the blocking process, slides were washed 2 times with TBST. […]

[4] = tested on: T47D cells; assay: COPIA RTK activation in growth factor stimulated T47D cells; format: cell-based, human; settings: T47D cells stimulated with EGF or HRG
Method: as §1, §2

Chain of VEGF (P15692 207-311 limits assumed): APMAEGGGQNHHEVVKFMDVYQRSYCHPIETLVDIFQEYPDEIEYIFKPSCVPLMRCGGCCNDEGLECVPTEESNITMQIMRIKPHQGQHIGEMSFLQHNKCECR

## CC/C(=C(\c1ccccc1)c1ccc(OCCN(C)C)cc1)c1ccccc1 [Tamoxifen]
[1]; adjuvant therapy studies
  reduction in the odds of recurrence and mortality: 40% to 50%
[1]; patients with metastatic disease
  patients with temporary remission: 30% to 50%

## Bevacizumab
[2]
  survival: improve survival

## EGF: epidermal growth factor, stimulatory growth factor used to induce HER1 phosphorylation (NSDSECPLSHDGYCLHDGVCMYIEALDKYACNCVVGYIGERCQYRDLKWWELR; Epidermal growth factor; UniProt P01133 971-1023, looked up)
[3]
  level of pHER1 per cell: 992.5 RFU/cell
[4]
  HER1 activation: resulted in both HER1 and HER2 activation
  HER2 activation: resulted in both HER1 and HER2 activation
